According to the NIST ThermoML archive (doi:10.1021/acs.jced.6b00021):
Where “and” joins values, the source holds several entries; their conditions need not be identical. Equal entries are not always repeated.

Conditions: Liquid; for electrical conductivity / viscosity / self diffusion coefficient: 101.33 kPa; for electrical conductivity: Alternating current cell with electrodes; for mass density: 100 kPa, Vibrating tube method; for self diffusion coefficient: NMR spin-echo technique

CCn1cc[n+](C)c1.CS(=O)(=O)[O-] [1-ethyl-3-methylimidazolium methanesulfonate]
Conditions	electrical conductivity	mass density [kg/m3]	self diffusion coefficient [m2/s]
273.15 K	0.0413 S/m	–	–
278.15 K	0.0656 S/m	1256.19	–
280.65 K	–	1254.4	–
283.15 K	0.0988 S/m	1252.62	–
285.65 K	–	1250.84	–
288.15 K	0.142 S/m	1249.07	–
293.15 K	0.197 S/m	1245.55	–
294 K	–	–	7.63e-12
296.58 K	–	–	9e-12
296.62 K	–	–	9.07e-12
298.15 K	0.265 S/m and 0.259 S/m	1242.06	–
298.98 K	–	–	1.02e-11
299.01 K	–	–	1.03e-11
300.65 K	0.298 S/m	–	–
301.63 K	–	–	1.23e-11
301.77 K	–	–	1.24e-11
303.15 K	0.346 S/m and 0.34 S/m	1238.7	–
304 K	–	–	1.35e-11
304.01 K	–	–	1.34e-11
305.65 K	0.386 S/m	–	–
306.53 K	–	–	1.52e-11
306.58 K	–	–	1.55e-11
308.15 K	0.435 S/m	–	–
310.65 K	0.488 S/m	–	–
313.15 K	0.553 S/m	1231.94	–
313.69 K	–	–	2.21e-11
313.74 K	–	–	2.21e-11
323.15 K	0.821 S/m	1225.21	–
323.7 K	–	–	3.42e-11
323.73 K	–	–	3.43e-11
333.15 K	1.15 S/m	1218.52	–
333.42 K	–	–	5.06e-11
333.52 K	–	–	5.07e-11
343.15 K	1.55 S/m	1211.87	–
343.66 K	–	–	7.13e-11
343.73 K	–	–	7.12e-11
353.15 K	1.99 S/m	1205.26	–
353.4 K	–	–	9.71e-11
353.61 K	–	–	9.7e-11
363.15 K	–	1198.74	–

viscosity
Conditions	Concentric cylinders viscometry	Falling or rolling sphere viscometry
273.15 K	1250.4 mPa·s	–
278.15 K	749.3 mPa·s	–
283.15 K	475.8 mPa·s	472.2 mPa·s and 472.4 mPa·s
285.65 K	–	379 mPa·s
288.15 K	317.1 mPa·s	314.8 mPa·s and 315.7 mPa·s
293.15 K	219.7 mPa·s and 220.2 mPa·s and 220 mPa·s	218.9 mPa·s and 219.3 mPa·s
296.15 K	–	181.5 mPa·s and 179.5 mPa·s and 179.8 mPa·s
298.15 K	158.2 mPa·s	159.8 mPa·s and 160.6 mPa·s
300.15 K	–	138.8 mPa·s [middle of 4 runs]
303.15 K	115.6 mPa·s	116.3 mPa·s
305.65 K	–	101.8 mPa·s and 102 mPa·s
308.15 K	–	89.34 mPa·s and 89.37 mPa·s
313.15 K	66.71 mPa·s	69.08 mPa·s and 69.13 mPa·s and 69.74 mPa·s
323.15 K	43.42 mPa·s	44.52 mPa·s and 44.54 mPa·s
333.15 K	30.27 mPa·s	30.49 mPa·s and 30.68 mPa·s
343.15 K	22.11 mPa·s	21.93 mPa·s and 21.98 mPa·s
353.15 K	16.66 mPa·s	16.42 mPa·s and 16.46 mPa·s
363.15 K	12.94 mPa·s	12.73 mPa·s and 12.81 mPa·s

CCn1cc[n+](C)c1.N#C[B-](C#N)(C#N)C#N [1-ethyl-3-methylimidazolium tetracyanoborate]
Falling or rolling sphere viscometry
Conditions	viscosity
263.15 K	111.3 mPa·s
264.05 K	108.4 mPa·s
265.65 K	96.35 mPa·s and 96.52 mPa·s
268.15 K	81 mPa·s [middle of 6 runs]
273.15 K	58.91 mPa·s and 58.87 mPa·s and 60.07 mPa·s
278.15 K	44.77 mPa·s
283.15 K	34.55 mPa·s and 34.65 mPa·s and 34.73 mPa·s
288.15 K	27.4 mPa·s and 27.3 mPa·s and 27.14 mPa·s
293.15 K	22.35 mPa·s [middle of 6 runs]
296.15 K	19.62 mPa·s [middle of 4 runs]
298.15 K	18.51 mPa·s [middle of 4 runs]
300.15 K	17.16 mPa·s and 16.93 mPa·s
303.15 K	15.47 mPa·s and 15.64 mPa·s and 15.62 mPa·s
313.15 K	11.25 mPa·s [middle of 5 runs]
323.15 K	8.531 mPa·s and 8.521 mPa·s and 8.518 mPa·s
333.15 K	6.68 mPa·s
338.15 K	5.992 mPa·s and 6.022 mPa·s
343.15 K	5.399 mPa·s and 5.4 mPa·s and 5.395 mPa·s
348.15 K	4.921 mPa·s and 4.92 mPa·s
353.15 K	4.458 mPa·s and 4.455 mPa·s and 4.454 mPa·s

Conditions	mass density [kg/m3]
273.15 K	1056.29
283.15 K	1048.19
293.15 K	1040.2
298.15 K	1036.25
303.15 K	1032.31
313.15 K	1024.52
323.15 K	1016.81
333.15 K	1009.19
343.15 K	1001.66
353.15 K	994.2
363.15 K	986.83
